Target: L-xylulose reductase (Homo sapiens) (UniProt Q7Z4W1)
Assay: Protein interaction energy by using binding affinity towards human L-xylulose reductase enzyme

Sequence of L-xylulose reductase (Homo sapiens) (Q7Z4W1 whole entry): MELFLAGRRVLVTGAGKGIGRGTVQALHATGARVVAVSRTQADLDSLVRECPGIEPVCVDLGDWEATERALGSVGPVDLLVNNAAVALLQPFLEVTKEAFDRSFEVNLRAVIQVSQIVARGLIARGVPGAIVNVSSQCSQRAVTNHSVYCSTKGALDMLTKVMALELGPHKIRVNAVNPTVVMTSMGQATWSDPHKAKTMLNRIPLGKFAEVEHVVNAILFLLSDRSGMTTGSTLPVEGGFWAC

With `CCC(C(=O)O)C(=O)O` as the compound, how does the Protein interaction energy read?
The Protein interaction energy was -86.7 kcal/M.

Target: L-xylulose reductase (Homo sapiens) (UniProt Q7Z4W1)

With `CCCOP(=O)(O)O` as the compound, how does the Protein interaction energy read?
The Protein interaction energy was -87.4 kcal/M.

`CCC(O)C(=O)O` (stereo not given) was tested. Which Protein interaction energy did it give?
The Protein interaction energy was -38.4 kcal/M.

How did the Protein interaction energy turn out when `O=C(O)CC(C(=O)O)C(=O)O` was run?
Its Protein interaction energy is -163 kcal/M.

With `CCC(CO)C(=O)O` (stereo not given) as the compound, how does the Protein interaction energy read?
Its Protein interaction energy is -41.4 kcal/M.

`CO[PH](O)(O)OCC(=O)O` was tested. Which Protein interaction energy did it give?
The Protein interaction energy was -114 kcal/M.

With `O=C(O)CCC(=O)O` as the compound, how does the Protein interaction energy read?
Its Protein interaction energy is -114 kcal/M.

Which Protein interaction energy does the source give for `CCCc1ccc(O)cc1` here?
The Protein interaction energy was -26.9 kcal/M.

With `CCC(C(=O)O)c1ccc(O)cc1` (stereo not given) as the compound, how does the Protein interaction energy read?
Its Protein interaction energy is -51.6 kcal/M.

How did the Protein interaction energy turn out when `CCCC(=O)O` was run?
Its Protein interaction energy is -40.4 kcal/M.

From ChEMBL document CHEMBL1136708, “Structure-based design of inhibitors of human L-xylulose reductase modelled into the active site of the enzyme” (Bioorg Med Chem Lett, 2003)
